The text below walks through data of patent US9682991B2, “Tricyclic compounds for use as kinase inhibitors” (FUNDACIÓN CENTRO NACIONAL DE INVESTIGACIONES ONCOLOGICAS …, priority 2009, dated 2017).

The target in assay [1] is PIM-2 (Homo sapiens (Human), UniProt Q9P1W9). Kind of assay: PIM-2 biochemical assay (ADP Hunter). The following applies: semi-quantitative; read-out: PIM2 IC50. An excerpt:
The biochemical assay to measure PIM-2 activity relies on the ADP Hunter assay kit (DiscoveRx Corp., Cat. #90-0077), that determines the amount of ADP as direct product of the kinase enzyme activity.

Assay [2] deals with PIM-1 (Homo sapiens (Human), UniProt P11309). Kind of assay: PIM-1 biochemical assay (ADP Hunter).
For assay [3], the system named is Bad S112 phosphorylation in H1299 cells overexpressing Pim1 (H1299Pim1). Put plainly: Bad S112 phosphorylation inhibition assay (In Cell ELISA). The assay is classed as cell-based. The following applies: read-out: EC50 BadP ELISA H1299 Pim1. The method, then: Efficacy of compounds of the invention on the inhibition of Bad phosphorylation was measured by an In Cell ELISA. EC50 values were established for the tested compounds.
Cells: H1299 cells overexpressing Pim1 (H1299Pim1)
Cells were seeded in 15000 cells per 200 μl per well into 96-well plates and incubated for 16 h at 37° C., 5% CO2. On day two, nine serial 1:2 compound dilutions were made in DMSO in a 96-well plate. The compounds were added to duplicate wells in 96-well cell plates using a FX BECKMAN robot (Beckman Coulter) and incubated at 37° C. with CO2 atmosphere. After 4 hours, relative levels of Bad S112 phosphorylation were measured in Cell ELISA using SuperSignal ELISA Femto substrate (Pierce) and read on VICTOR (Perkin Elmer). EC50 values were calculated using ActivityBase from IDBS.

The target of assay [4] is PIM-3 (Homo sapiens (Human), UniProt Q86V86). Kind of assay: PIM-3 biochemical assay (ADP Hunter). Particulars: semi-quantitative; read-out: PIM3 IC50.
Where [5] appears, read: read-out: PIM1 IC50, semi-quantitative.
[6] abbreviates: Homo sapiens, NCI-H1299, semi-quantitative.

Read-outs that look alike come from different tables or passages of the source.

PIM-1, sequence (P11309 whole entry): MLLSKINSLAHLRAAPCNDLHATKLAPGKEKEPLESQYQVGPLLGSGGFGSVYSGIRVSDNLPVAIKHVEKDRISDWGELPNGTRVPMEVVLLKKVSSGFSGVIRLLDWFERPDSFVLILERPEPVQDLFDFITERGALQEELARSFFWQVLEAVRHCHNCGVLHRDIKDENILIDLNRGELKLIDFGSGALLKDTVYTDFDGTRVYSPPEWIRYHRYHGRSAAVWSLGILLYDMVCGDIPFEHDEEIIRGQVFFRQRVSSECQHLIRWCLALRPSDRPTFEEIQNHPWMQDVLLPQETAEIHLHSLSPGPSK
PIM-2, sequence (Q9P1W9 whole entry): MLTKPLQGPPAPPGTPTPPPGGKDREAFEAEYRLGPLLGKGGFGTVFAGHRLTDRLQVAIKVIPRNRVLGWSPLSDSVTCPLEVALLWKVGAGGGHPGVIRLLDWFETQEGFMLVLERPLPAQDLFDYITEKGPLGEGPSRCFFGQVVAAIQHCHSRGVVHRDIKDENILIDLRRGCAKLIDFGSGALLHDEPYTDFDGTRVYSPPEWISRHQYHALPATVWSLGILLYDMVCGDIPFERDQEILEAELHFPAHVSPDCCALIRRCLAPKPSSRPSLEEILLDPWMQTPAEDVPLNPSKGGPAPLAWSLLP

The term IC50 denotes the concentration that inhibits the measured activity by half. In general, EC50 refers to the midpoint of the concentration-response curve. As for `COc1ccc(-c2nnc3c4c(c(N5CCC(CN)CC5)nn23)N(C)CCO4)cc1` [Example 52, C-{1-[3-(4-Methoxy-phenyl)-6-methyl-7,8-dihydro-6H-9-oxa-1,2,3a,4,6-pentaaza-cyclopenta[a]naphthalen-5-yl]-piperidin-4-yl}-methylamine], the values for the IC50 in assay [1], in assay [2] (setting [5]) and in assay [4] were over 1000 nM, 100 to 1000 nM and over 1000 nM, respectively. The EC50 in assay [3] (semi-quantitative) was 1000 to 10000 nM.

Turning to `CN1CCOc2c1c(NC1CC3(CCNCC3)C1)nn1c(-c3cccc(OC(F)(F)F)c3)nnc21` [Example 49, (7-Aza-spiro[3.5]non-2-yl)-[6-methyl-3-(3-trifluoromethoxy-phenyl)-7,8-dihydro-6H-9-oxa-1,2,3a,4,6-pentaaza-cyclopenta[a]naphthalen-5-yl]-amine], the IC50 in assay [2] (setting [5]) is under 100 nM. Further, in assay [3] (setting [6]), the EC50 was in the range of 250 to 1000 nM.

Consider `CN1CCOc2c(NC3CC4(CCNCC4)C3)nn3c(-c4cccc(OC(F)(F)F)c4)nnc3c21` [Example 65, (7-Aza-spiro[3.5]non-2-yl)-[9-methyl-3-(3-trifluoromethoxy-phenyl)-8,9-dihydro-7H-6-oxa-1,2,3a,4,9-pentaaza-cyclopenta[a]naphthalen-5-yl]-amine], for which the figures for the IC50 in assay [2] (setting [5]) and in assay [4] were under 100 nM and 100 to 1000 nM, respectively. Further, the EC50 in assay [3] (setting [6]) was in the range of 1000 to 10000 nM.

On to `CC1CN(C)c2c(NCC3CCN(C)CC3)nn3c(-c4cccc(OC(F)(F)F)c4)nnc3c2O1` (centres unmarked) [Example 40, [6,8-Dimethyl-3-(3-trifluoromethoxy-phenyl)-7,8-dihydro-6H-9-oxa-1,2,3a,4,6-pentaaza-cyclopenta[a]naphthalen-5-yl]-(1-methyl-piperidin-4-ylmethyl)-amine], for which the results for the IC50 in assay [1], in assay [2] (setting [5]) and in assay [4] were 100 to 1000 nM, under 100 nM and under 100 nM, respectively. For the same compound, in assay [3] (setting [6]), the EC50 was in the range of 250 to 1000 nM.

As to `CN1CCC(CNc2nn3c(-c4ccc(F)cc4)nnc3c3c2N(C)CCO3)CC1` [Example 100, [3-(4-Fluoro-phenyl)-6-methyl-7,8-dihydro-6H-9-oxa-1,2,3a,4,6-pentaaza-cyclopenta[a]naphthalen-5-yl]-(1-methyl-piperidin-4-ylmethyl)-amine], the IC50 in assay [1] was over 1000 nM; in assay [2], 100 to 1000 nM; in assay [2] (read-out: PIM1 IC50), 181 nM. Besides, in assay [3] (setting [6]), the EC50 fell in the range of 1000 to 10000 nM.

`CN1CCC(CNc2nn3c(-c4cccc(C(F)(F)F)c4)nnc3c3c2N(C)CCO3)CC1` [Example 32, (1-Methyl-piperidin-4-ylmethyl)-[6-methyl-3-(3-trifluoromethyl-phenyl)-7,8-dihydro-6H-9-oxa-1,2,3a,4,6-pentaaza-cyclopenta[a]naphthalen-5-yl]-amine]: the results for the IC50 in assay [1], in assay [2] (setting [5]) and in assay [4] were 100 to 1000 nM, under 100 nM and under 100 nM, respectively.

Turning to `CN1CCC(CNc2nn3c(-c4cccc(N(C)C)c4)nnc3c3c2N(C)CCO3)CC1` [Example 34, [3-(3-Dimethylamino-phenyl)-6-methyl-7,8-dihydro-6H-9-oxa-1,2,3a,4,6-pentaaza-cyclopenta[a]naphthalen-5-yl]-(1-methyl-piperidin-4-ylmethyl)-amine], the IC50 is over 1000 nM in assay [1], under 100 nM in assay [2] (setting [5]) and 100 to 1000 nM in assay [4]. Also, the EC50 in assay [3] (setting [6]) fell in the range of 1000 to 10000 nM.

For `CN1CCOc2c1c(NCCCO)nn1c(-c3cccc(OC(F)(F)F)c3)nnc21` [Example 21, 3-[6-Methyl-3-(3-trifluoromethoxy-phenyl)-7,8-dihydro-6H-9-oxa-1,2,3a,4,6-pentaaza-cyclopenta[a]naphthalen-5-ylamino]-propan-1-ol], the IC50 in assay [1] is 100 to 1000 nM; in assay [2] (setting [5]), under 100 nM; in assay [4], 100 to 1000 nM.

In the case of `CN1CCOc2c1c(NCC13CCN(CC1)C3)nn1c(-c3cccc(OC(F)(F)F)c3)nnc21` [Example 54, (1-Aza-bicyclo[2.2.1]hept-4-ylmethyl)-[6-methyl-3-(3-trifluoromethoxy-phenyl)-7,8-dihydro-6H-9-oxa-1,2,3a,4,6-pentaaza-cyclopenta[a]naphthalen-5-yl]-amine], the EC50 in assay [3] (setting [6]) fell in the range of 250 to 1000 nM.

Consider `COc1ccc(-c2nnc3c4c(c(NCc5ccc(F)cc5)nn23)N(C)CCO4)cc1` [Example 81, (4-Fluoro-benzyl)-[3-(4-methoxy-phenyl)-6-methyl-7,8-dihydro-6H-9-oxa-1,2,3a,4,6-pentaaza-cyclopenta[a]naphthalen-5-yl]-amine], for which the figures for the IC50 in assay [1], in assay [2] (setting [5]) and in assay [4] were over 1000 nM, under 100 nM and 100 to 1000 nM, respectively. Moreover, the EC50 in assay [3] (setting [6]) fell in the range of 1000 to 10000 nM.

For the compound `CN1CCOc2c1c(N1CCCC3(CCCN3)CC1)nn1c(-c3cccc(OC(F)(F)F)c3)nnc21` (centres unmarked) [Example 60, 5-(1,8-Diaza-spiro[4.6]undec-8-yl)-6-methyl-3-(3-trifluoromethoxy-phenyl)-7,8-dihydro-6H-9-oxa-1,2,3a,4,6-pentaaza-cyclopenta[a]naphthalene], the IC50 in assay [1] was 100 to 1000 nM; in assay [2] (setting [5]), under 100 nM. Besides, the EC50 in assay [3] (setting [6]) is under 250 nM.

On to `CN1CCOc2c1c(N1CC3(CCCNC3)C1)nn1c(-c3cccc(OC(F)(F)F)c3)nnc21` [Example 69, 5-(2,6-Diaza-spiro[3.5]non-2-yl)-6-methyl-3-(3-trifluoromethoxy-phenyl)-7,8-dihydro-6H-9-oxa-1,2,3a,4,6-pentaaza-cyclopenta[a]naphthalene], for which the IC50 is 100 to 1000 nM in assay [1] and under 100 nM in assay [2] (setting [5]). Also, the EC50 in assay [3] (setting [6]) was under 250 nM.

Regarding `CN1CCOc2c1c(NCCN1CCOCC1)nn1c(-c3cccc(OC(F)(F)F)c3)nnc21` [Example 29, [6-Methyl-3-(3-trifluoromethoxy-phenyl)-5,6,7,8-tetrahydro-9-oxa-1,2,3a,4,6-pentaaza-cyclopenta[a]naphthalen-5-yl]-(2-morpholin-4-yl-ethyl)-amine], the half-maximal inhibitory concentration (IC50) in assay [1] and in assay [4] was 100 to 1000 nM each time. In addition, in assay [3] (setting [6]), the EC50 was under 250 nM.

With `CN1CCC(CNc2nn3c(-c4cccc(OC(F)(F)F)c4)nnc3c3c2OCC(C)(C)N3C)CC1` [Example 72, (1-Methyl-piperidin-4-ylmethyl)-[8,8,9-trimethyl-3-(3-trifluoromethoxy-phenyl)-8,9-dihydro-7H-6-oxa-1,2,3a,4,9-pentaaza-cyclopenta[a]naphthalen-5-yl]-amine], the figures for the IC50 in assay [1], in assay [2] and in assay [4] were over 1000 nM, 100 to 1000 nM and 100 to 1000 nM, respectively.

As for `CN1CCOc2c1c(N(C)C1CCOCC1)nn1c(-c3cccc(OC(F)(F)F)c3)nnc21` [Example 97, Methyl-[6-methyl-3-(3-trifluoromethoxy-phenyl)-7,8-dihydro-6H-9-oxa-1,2,3a,4,6-pentaaza-cyclopenta[a]naphthalen-5-yl]-(tetrahydro-pyran-4-yl)-amine], the IC50 was 100 to 1000 nM in assay [1], under 100 nM in assay [2] (setting [5]) and under 100 nM in assay [4].

With `CN(CCN1CCOCC1)c1nn2c(-c3cccc(OC(F)(F)F)c3)nnc2c2c1N(C)CCO2` [Example 98, Methyl-[6-methyl-3-(3-trifluoromethoxy-phenyl)-7,8-dihydro-6H-9-oxa-1,2,3a,4,6-pentaaza-cyclopenta[a]naphthalen-5-yl]-(2-morpholin-4-yl-ethyl)-amine], the IC50 is 100 to 1000 nM in assay [1], under 100 nM in assay [2] (setting [5]) and 100 to 1000 nM in assay [4].

For `CN1CCC(CNc2nn3c(-c4cccc(OC(F)(F)F)c4)nnc3c3c2CCCC3)CC1` [Example 37, (1-Methyl-piperidin-4-ylmethyl)-[3-(3-trifluoromethoxy-phenyl)-7,8,9,10-tetrahydro-[1,2,4]triazolo[3,4-a]phthalazin-6-yl]-amine], in assay [3] (setting [6]), the EC50 lay in the range of 1000 to 10000 nM.

With `CCN1CCC(CNc2nn3c(-c4cccc(OC(F)(F)F)c4)nnc3c3c2N(C)CCO3)CC1` [Example 91, (1-Ethyl-piperidin-4-ylmethyl)-[6-methyl-3-(3-trifluoromethoxy-phenyl)-7,8-dihydro-6H-9-oxa-1,2,3a,4,6-pentaaza-cyclopenta[a]naphthalen-5-yl]-amine], the EC50 in assay [3] (setting [6]) is 250 to 1000 nM.

As for `CCN1CCOc2c1c(NCC1CCN(C)CC1)nn1c(-c3cccc(OC(F)(F)F)c3)nnc21` [Example 12, [6-Ethyl-3-(3-trifluoromethoxy-phenyl)-7,8-dihydro-6H-9-oxa-1,2,3a,4,6-pentaaza-cyclopenta[a]naphthalen-5-yl]-(1-methyl-piperidin-4-ylmethyl)-amine], the IC50 in assay [2] (setting [5]) is under 100 nM. Besides, in assay [3] (setting [6]), the EC50 was under 250 nM.

On to `CN1CCOc2c1c(NCc1ccc(F)cc1)nn1c(-c3cccc(OC(F)(F)F)c3)nnc21` [Example 9, (4-Fluoro-benzyl)-[6-methyl-3-(3-trifluoromethoxy-phenyl)-7,8-dihydro-6H-9-oxa-1,2,3a,4,6-pentaaza-cyclopenta[a]naphthalen-5-yl]-amine], for which the values for the IC50 in assay [1], in assay [2] and in assay [2] (read-out: PIM1 IC50) were over 1000 nM, under 100 nM and 52.4 nM, respectively. Further, the EC50 in assay [3] (setting [6]) is 1000 to 10000 nM.

`CN1CCOc2c1c(NCC1CC3(CCNCC3)C1)nn1c(-c3cccc(OC(F)(F)F)c3)nnc21` [Example 59]: in assay [3] (setting [6]), the EC50 fell in the range of 250 to 1000 nM.
